Experimental data taken from patent US7462486B2, “Methods of selecting T cell receptor V peptides for therapeutic use” (Oregon Health & Science University, priority 2000, dated 2008).
“Also recorded” adds a separate entry of the source.

Legend:
Type in all cases: cell-based, human
[1] = test system: IL-10-secreting T cells (PBMC); assay: IL-10 ELISPOT: frequency of TCR CDR2 peptide-specific cells in PBMC; details: for IL-10 response, MS patients versus HC: comparison in words; for frequency of responding cells (IL-10) in SPMS patient: MS186; for frequency of responding cells (IL-10) in HC: healthy controls (HC); for frequency of responding cells (IL-10) in HC / frequency of IL-10-secreting T cells: single peptide; for IL-10 response, SPMS patient versus HC: third SPMS patient (MS186), FIG. 4; for frequency of IL-10-secreting T cells: 5 healthy controls
Procedure: (§1) Antigens. Antigens used in the ELISPOT assay included ConA (2 μg/ml) and synthetic TCR peptides (25 μg/ml), including 116 known AV and BV gene products.
(§2) T cell frequency. To determine antigen-specific T cell frequency by ELISPOT, blood mononuclear cells were separated by Ficoll density gradient centrifugation, resuspended in 2% human AB serum, and aliquotted at 0.5 and 0.25 million cells in triplicate wells of nitrocellulose-coated microtiter plates (Resolution Technologies) pretreated with anti-IFN-γ (Mabtech, Sweden) or anti-IL-10 (PharMingen, San Diego, Calif.) mAb. Peptides, ConA, and medium were added and the plates incubated at 37 C for 24 hours (IFN-γ) or 48 hours (IL-10). Biotin-labeled secondary mAb for each cytokine was added, followed by streptavidin-alkaline phosphatase (Dako Corp., Carpinteria, Calif.) and substrate (BCIP/NBT phosphatase substrate, KPL, Gaithersburg, Md.) to develop optimal blue staining. Cytokine spots were quantified using an AID Immunospot Analyzer (AID, Cleveland, Ohio) equipped with a high resolution lens camera and analytical software designed for use with the AID system. Mean spots/well were calculated for each Ag, and net counts established after subtraction of background (no Ag). The frequency of Ag-specific spot-forming cells per million PBMC was determined from the average net response observed at two different cell concentrations. The mean net frequency+SEM was calculated for MS patients and HC, and differences compared by Student's t test for significance (p<0.05).
(§3) Preparation of ELISPOT plates. Four flat bottom 96 well plates with nitrocellulose membranes were coated overnight with 4 μg/ml mouse anti-IL-10 monoclonal antibodies (Pharmingen), and an additional 4 plates were coated with 10 μg/ml mouse anti-human INF((Mabtech). Two hours before addition of peptides, plates were washed 3× with sterile PBS, pH 7.2, and blocked for one hour at room temperature with 10% FBS in sterile PBS.
(§4) Blood processing. Twelve tubes of blood (approximately 120 ml) were collected from healthy controls and MS patients. The blood was immediately separated over a Ficoll gradient by centrifugation for 25 minutes at 2100 rpm at 25 degrees. Peripheral blood mononuclear cells (PBMC) so obtained were washed 3× with cold RPMI and resuspended to 10×10^6 cells per ml.
(§5) TCR peptide screens. Sterile stocks containing 1 mg/ml peptide were aliquotted among 4 sterile 96 well polypropylene blocks. Blocks were kept refrigerated for up to one month. Precoated and blocked ELIPSOT plates were washed with 1× with blocking solution and 100 μl of stimulation medium was added (5% fetal bovine serum/1% human AB serum/2 mM pyruvate, 2 mM glutamate, and 50 μg/ml penicillin/streptomycin). 10 μl of each peptide was added per well in triplicate wells. Negative control wells contained RPMI, positive control wells contained 2 μg/ml final concentration ConA. To each well human PBMC were added at a density of 2.5×10^5 cells per well in a total of 8 plates ([…]). Plates were incubated for 24 hours for INF-γ ELISPOTs and for 48 hours for IL-10 ELISPOTs.
(§6) Detection of cytokine producing cells. PBMC were removed from plates by washing with 3× with PBS and 3× with PBS/0.05% Tween, pH 7.6. To each well was added 100 μl of either anti-IFN-γ (1 μg/ml, Mabtech) or anti-IL-10 (2 μg/ml, Pharmingen) and incubated for 4 hours at room temperature in the dark. Plates were washed 4× with PBS/Tween, then 100 μl per well of alkaline-phosphatase-conjugated streptaviden (DAKO) (1:1000 of stock) was added and plates were incubated for 45 minutes at room temperature. Plates were washed 4× with PBS/Tween and 6× with PBS, 1 minute each. 100 μl of BCIP/NBT substrate (KPL laboratories) was added and the color reaction was allowed to develop for 3-7 minutes. Plates were rinsed 3× with distilled water and dried overnight at room temperature.
(§7) Analysis of ELISPOTS. […]

[2] = test system: IFN-γ-secreting T cells (PBMC); assay: IFN-γ ELISPOT: frequency of TCR CDR2 peptide-specific cells in PBMC; details: for induction of IFN-γ-secreting T cells in HC: 5 HC; for frequency of IFN-γ-secreting cells: 5 healthy controls, mean, single peptide
Procedure: as §1, §2, §3, §4, §5, §6, §7

CD4+CD25− T cells = assay: Treg assay of antigen-specific CD4+CD25+ T cell lines; details: result in words

ALGQGPQFIFQYYEEEERQRG [BV5S2]
IL-10 response, MS patients versus HC [1]: significantly lower; also recorded: significantly reduced frequencies

SLGQGPEFLIYFQGTGAADDS [BV6S1A1N1]
IL-10 response, MS patients versus HC [1]: significantly lower
IL-10 response, MS patients versus HC ([1]; listed as BV6S1A1N1T): significantly reduced frequencies

DLGHGLRLIHYSYGVQDTNKG [BV12S2A1T]
induction of IFN-γ-secreting T cells in HC [2]: induced IFN-γ-secreting T cells in all 5 HC
IFN-γ recognition by MS patients [2]: poorly recognized

YPNQGLQLLLKYTSAATLVKG [AV1S2A1N1T]
frequency of responding cells (IL-10) in SPMS patient [1]: 300 cells/million
frequency of responding cells (IL-10) in two symptomatic RRMS patients ([1]; MS193 and MS74): > 1700 cells/million
frequency of responding cells (IL-10) in HC [1]: < 25 cells/million
IL-10 response, SPMS patient versus HC [1]: responded better than HC

KHGEAPVFLMILLKGGEQKGH [AV29S1A2T]
frequency of IL-10-secreting T cells ([1]; mean): > 1000 cells/million PBMC
frequency of responding cells (IL-10) in MS patients ([1]; MS patients, mean): > 1500 cells/million
frequency of responding cells (IL-10) in HC [1]: about 1000 cells/million

VLKNEFKFLISFQNENVFDET [BV25S1A1T]
frequency of responding cells (IL-10) in SPMS patient [1]: 450 cells/million
frequency of responding cells (IL-10) in HC [1]: 150 cells/million
IL-10 response, SPMS patient versus HC [1]: responded better than HC

KLEEELKFLVYFQNEELIQKA [BV10S1P]
frequency of IFN-γ-secreting cells [2]: minimal frequencies
frequency of IL-10-secreting T cells ([1]; mean): > 2000 cells/million PBMC

Tetanus toxoid
Treg activity of T cell line specific for the antigen (CD4+CD25− T cells): did not have any detectable Treg activity

DLGHGLRLIHYSYGVKDTNKG [BV12S2A2T]
induction of IFN-γ-secreting T cells in HC [2]: induced IFN-γ-secreting T cells in all 5 HC
IFN-γ recognition by MS patients [2]: poorly recognized

SSGEMIFLIYQGSYDQQNATE [ADV6S1A1N1]
induction of IFN-γ-secreting T cells in HC [2]: induced IFN-γ-secreting T cells in all 5 HC
IFN-γ recognition by MS patients [2]: poorly recognized

NQNKEFMLLISFQNEQVLQET [BV19S1P]
frequency of IFN-γ-secreting cells [2]: 900 cells/million PBMC
